According to the kinase profiling compilation of Christmann-Franck et al. (2016):

Legend:
Assay in all cases: radiometric filter-binding kinase assay, Kinase HotSpot
Settings in all cases: compound 0.5 µM; ATP 10 µM
PAK2 (human) = PAK2 (human) (UniProt Q13177)
CDC42BPB (human) = CDC42BPB (human) (UniProt Q9Y5S2)
SGK3 (human) = SGK3 (human) (UniProt Q96BR1)
PRKG2 (human) = PRKG2 (human) (UniProt Q13237)
PNCK (human) = PNCK (human) (UniProt Q6P2M8)
MAPK14 (human) = MAPK14 (human) (UniProt Q16539)
PAK3 (human) = PAK3 (human) (UniProt O75914)
GRK5 (human) = GRK5 (human) (UniProt P34947)
MAPK9 (human) = MAPK9 (human) (UniProt P45984)
AXL (human) = AXL (human) (UniProt P30530)
RPS6KA2 KD1 KD2 (human) = RPS6KA2 KD1 KD2 (human) (UniProt Q15349)
DAPK3 (human) = DAPK3 (human) (UniProt O43293)
RPS6KA3 KD1 KD2 (human) = RPS6KA3 KD1 KD2 (human) (UniProt P51812)
CDK3 CCNE1 (human) = CDK3 CCNE1 (human) (UniProt Q00526+P24864)
TTK (human) = TTK (human) (UniProt P33981)
KIT (human) = KIT (human) (UniProt P10721)
ADRBK2 (human) = ADRBK2 (human) (UniProt P35626)
SIK2 (human) = SIK2 (human) (UniProt Q9H0K1)
ABL2 (human) = ABL2 (human) (UniProt P42684)
GSK3B (human) = GSK3B (human) (UniProt P49841)
FER (human) = FER (human) (UniProt P16591)
CSNK1G1 (human) = CSNK1G1 (human) (UniProt Q9HCP0)
MAPKAPK3 (human) = MAPKAPK3 (human) (UniProt Q16644)
FGR (human) = FGR (human) (UniProt P09769)
PBK (human) = PBK (human) (UniProt Q96KB5)
LTK (human) = LTK (human) (UniProt P29376)
PRKCB2 (human) = PRKCB2 (human) (UniProt P05771)
CAMK2A (human) = CAMK2A (human) (UniProt Q9UQM7)
PDGFRA (human) = PDGFRA (human) (UniProt P16234)
SRC (human) = SRC (human) (UniProt P12931)
PHKG1 (human) = PHKG1 (human) (UniProt Q16816)
SRPK3 (human) = SRPK3 (human) (UniProt Q9UPE1)
CAMK2G (human) = CAMK2G (human) (UniProt Q13555)
TXK (human) = TXK (human) (UniProt P42681)
TGFBR1 (human) = TGFBR1 (human) (UniProt P36897)
ITK (human) = ITK (human) (UniProt Q08881)
PRKCZ (human) = PRKCZ (human) (UniProt Q05513)
DDR2 (human) = DDR2 (human) (UniProt Q16832)
IRAK1 (human) = IRAK1 (human) (UniProt P51617)
ERBB4 (human) = ERBB4 (human) (UniProt Q15303)
NLK (human) = NLK (human) (UniProt Q9UBE8)
[1] = target: JAK1 JH1 catalytic (human) (UniProt P23458)

Sequence of PRKCB2 (human) (P05771 whole entry, looked up): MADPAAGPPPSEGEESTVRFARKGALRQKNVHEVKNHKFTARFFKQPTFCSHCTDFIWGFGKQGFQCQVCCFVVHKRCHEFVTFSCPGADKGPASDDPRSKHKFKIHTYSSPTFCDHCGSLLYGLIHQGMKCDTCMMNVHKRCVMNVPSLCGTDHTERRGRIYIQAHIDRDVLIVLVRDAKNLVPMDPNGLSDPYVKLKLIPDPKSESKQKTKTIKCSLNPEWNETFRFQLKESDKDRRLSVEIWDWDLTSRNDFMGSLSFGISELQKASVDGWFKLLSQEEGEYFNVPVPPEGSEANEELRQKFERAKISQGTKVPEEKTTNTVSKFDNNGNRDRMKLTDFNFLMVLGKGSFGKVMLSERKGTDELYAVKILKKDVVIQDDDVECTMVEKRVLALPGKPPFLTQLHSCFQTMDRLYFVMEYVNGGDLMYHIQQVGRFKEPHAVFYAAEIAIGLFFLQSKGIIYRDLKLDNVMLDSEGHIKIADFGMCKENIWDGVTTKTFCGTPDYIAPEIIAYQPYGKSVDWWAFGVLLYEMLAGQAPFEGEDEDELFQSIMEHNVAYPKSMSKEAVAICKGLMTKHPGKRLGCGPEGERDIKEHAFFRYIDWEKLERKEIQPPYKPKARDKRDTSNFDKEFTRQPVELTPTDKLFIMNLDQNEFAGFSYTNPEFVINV
Sequence of PNCK (human) (Q6P2M8 whole entry, looked up): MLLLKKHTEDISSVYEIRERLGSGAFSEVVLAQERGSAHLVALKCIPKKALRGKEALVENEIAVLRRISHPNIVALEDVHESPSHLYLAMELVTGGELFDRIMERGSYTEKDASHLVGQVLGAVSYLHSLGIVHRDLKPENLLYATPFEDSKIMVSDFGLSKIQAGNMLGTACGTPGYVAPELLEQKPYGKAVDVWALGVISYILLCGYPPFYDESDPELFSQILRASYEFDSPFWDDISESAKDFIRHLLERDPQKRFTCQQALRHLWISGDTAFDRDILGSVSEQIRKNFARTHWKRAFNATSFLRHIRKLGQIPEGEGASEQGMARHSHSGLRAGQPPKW
Sequence of ADRBK2 (human) (P35626 whole entry, looked up): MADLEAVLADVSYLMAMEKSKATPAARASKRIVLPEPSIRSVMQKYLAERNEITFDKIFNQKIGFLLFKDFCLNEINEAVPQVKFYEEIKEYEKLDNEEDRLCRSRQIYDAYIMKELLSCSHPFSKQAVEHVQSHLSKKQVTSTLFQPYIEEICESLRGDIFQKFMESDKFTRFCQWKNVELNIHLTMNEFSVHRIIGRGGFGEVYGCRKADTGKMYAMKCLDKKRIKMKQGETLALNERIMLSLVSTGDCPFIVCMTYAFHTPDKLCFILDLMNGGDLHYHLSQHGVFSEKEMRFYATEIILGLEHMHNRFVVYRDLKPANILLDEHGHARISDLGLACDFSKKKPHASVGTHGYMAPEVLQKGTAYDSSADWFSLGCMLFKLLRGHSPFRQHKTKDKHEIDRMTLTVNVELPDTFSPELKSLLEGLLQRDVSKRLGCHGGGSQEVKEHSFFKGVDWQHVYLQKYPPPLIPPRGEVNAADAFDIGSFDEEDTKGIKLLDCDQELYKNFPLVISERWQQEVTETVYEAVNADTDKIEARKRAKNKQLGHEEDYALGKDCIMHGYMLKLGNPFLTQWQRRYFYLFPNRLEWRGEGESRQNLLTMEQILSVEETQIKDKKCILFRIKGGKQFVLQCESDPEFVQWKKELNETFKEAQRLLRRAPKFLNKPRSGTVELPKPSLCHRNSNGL
Sequence of NLK (human) (Q9UBE8 whole entry, looked up): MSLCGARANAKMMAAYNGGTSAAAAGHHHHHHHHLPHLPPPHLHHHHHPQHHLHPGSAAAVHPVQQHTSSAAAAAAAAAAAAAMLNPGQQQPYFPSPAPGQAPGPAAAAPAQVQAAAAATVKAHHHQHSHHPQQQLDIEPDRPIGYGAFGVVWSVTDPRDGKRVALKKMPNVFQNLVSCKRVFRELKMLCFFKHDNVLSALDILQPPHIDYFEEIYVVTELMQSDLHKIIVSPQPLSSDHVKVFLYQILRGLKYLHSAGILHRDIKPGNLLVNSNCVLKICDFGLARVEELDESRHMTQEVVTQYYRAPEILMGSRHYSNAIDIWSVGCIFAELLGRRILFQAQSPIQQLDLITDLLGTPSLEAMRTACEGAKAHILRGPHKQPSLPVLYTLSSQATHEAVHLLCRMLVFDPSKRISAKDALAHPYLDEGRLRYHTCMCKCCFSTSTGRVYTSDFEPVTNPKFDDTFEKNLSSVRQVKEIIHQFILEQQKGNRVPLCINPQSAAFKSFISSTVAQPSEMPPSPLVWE
Sequence of CSNK1G1 (human) (Q9HCP0 whole entry, looked up): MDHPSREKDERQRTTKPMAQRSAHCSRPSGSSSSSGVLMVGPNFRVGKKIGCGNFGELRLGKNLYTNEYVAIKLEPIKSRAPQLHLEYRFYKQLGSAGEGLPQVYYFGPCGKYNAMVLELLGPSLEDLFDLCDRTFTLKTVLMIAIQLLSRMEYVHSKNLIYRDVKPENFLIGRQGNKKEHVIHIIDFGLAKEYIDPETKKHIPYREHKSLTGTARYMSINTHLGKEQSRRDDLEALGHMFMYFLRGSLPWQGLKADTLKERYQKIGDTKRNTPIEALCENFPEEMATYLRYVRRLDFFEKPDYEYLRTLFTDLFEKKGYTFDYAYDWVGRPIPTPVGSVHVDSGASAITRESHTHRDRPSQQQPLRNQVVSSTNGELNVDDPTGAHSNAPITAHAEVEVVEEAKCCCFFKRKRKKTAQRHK
Sequence of PAK3 (human) (O75914 whole entry, looked up): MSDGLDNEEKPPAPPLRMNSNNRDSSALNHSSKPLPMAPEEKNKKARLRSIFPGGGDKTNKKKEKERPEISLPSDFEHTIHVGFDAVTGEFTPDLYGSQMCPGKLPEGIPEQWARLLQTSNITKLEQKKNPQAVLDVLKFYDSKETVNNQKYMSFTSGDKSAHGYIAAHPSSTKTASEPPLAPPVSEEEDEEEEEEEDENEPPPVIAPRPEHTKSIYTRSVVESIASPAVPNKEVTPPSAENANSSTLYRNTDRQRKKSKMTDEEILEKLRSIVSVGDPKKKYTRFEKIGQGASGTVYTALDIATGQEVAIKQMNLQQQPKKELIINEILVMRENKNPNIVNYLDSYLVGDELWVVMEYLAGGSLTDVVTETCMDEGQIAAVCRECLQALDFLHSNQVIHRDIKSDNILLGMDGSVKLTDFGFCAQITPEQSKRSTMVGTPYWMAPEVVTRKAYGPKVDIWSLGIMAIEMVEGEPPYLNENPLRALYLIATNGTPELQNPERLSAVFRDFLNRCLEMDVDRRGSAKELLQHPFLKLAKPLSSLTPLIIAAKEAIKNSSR
Sequence of PHKG1 (human) (Q16816 whole entry, looked up): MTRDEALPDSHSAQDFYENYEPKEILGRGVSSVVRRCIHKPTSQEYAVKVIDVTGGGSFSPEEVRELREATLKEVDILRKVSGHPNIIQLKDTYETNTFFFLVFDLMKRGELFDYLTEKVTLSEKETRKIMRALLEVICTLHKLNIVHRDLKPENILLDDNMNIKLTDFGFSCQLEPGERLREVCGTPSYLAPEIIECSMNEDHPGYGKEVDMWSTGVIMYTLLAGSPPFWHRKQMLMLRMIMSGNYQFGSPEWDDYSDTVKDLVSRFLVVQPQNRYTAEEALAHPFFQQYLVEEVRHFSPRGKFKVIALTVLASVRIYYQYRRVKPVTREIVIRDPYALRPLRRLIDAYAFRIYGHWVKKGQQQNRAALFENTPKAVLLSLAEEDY
Sequence of SIK2 (human) (Q9H0K1 whole entry, looked up): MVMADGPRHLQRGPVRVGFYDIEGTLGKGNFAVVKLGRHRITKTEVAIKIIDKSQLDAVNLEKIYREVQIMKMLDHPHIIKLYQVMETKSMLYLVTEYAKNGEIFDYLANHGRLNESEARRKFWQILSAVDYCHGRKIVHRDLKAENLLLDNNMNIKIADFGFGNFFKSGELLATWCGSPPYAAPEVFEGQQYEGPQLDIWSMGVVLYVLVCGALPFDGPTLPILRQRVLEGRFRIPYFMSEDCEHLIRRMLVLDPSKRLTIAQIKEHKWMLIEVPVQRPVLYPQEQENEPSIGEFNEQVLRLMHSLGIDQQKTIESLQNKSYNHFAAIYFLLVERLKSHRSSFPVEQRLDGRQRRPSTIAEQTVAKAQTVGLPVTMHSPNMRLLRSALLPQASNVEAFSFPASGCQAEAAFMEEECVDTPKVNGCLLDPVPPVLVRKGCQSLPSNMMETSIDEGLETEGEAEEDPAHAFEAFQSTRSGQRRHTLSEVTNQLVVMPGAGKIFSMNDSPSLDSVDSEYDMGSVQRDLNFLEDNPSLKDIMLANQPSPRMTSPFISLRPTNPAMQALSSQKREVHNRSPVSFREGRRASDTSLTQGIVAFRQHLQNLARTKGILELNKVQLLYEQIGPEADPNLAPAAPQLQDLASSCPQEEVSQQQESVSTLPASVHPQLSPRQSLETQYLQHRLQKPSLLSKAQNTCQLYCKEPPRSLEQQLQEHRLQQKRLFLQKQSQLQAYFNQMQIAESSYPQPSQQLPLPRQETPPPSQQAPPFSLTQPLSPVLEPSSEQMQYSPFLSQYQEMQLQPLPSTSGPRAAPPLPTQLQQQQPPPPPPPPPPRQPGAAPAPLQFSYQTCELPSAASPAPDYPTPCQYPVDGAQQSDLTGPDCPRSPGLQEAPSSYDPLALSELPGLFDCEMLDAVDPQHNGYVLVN
Sequence of MAPK9 (human) (P45984 whole entry, looked up): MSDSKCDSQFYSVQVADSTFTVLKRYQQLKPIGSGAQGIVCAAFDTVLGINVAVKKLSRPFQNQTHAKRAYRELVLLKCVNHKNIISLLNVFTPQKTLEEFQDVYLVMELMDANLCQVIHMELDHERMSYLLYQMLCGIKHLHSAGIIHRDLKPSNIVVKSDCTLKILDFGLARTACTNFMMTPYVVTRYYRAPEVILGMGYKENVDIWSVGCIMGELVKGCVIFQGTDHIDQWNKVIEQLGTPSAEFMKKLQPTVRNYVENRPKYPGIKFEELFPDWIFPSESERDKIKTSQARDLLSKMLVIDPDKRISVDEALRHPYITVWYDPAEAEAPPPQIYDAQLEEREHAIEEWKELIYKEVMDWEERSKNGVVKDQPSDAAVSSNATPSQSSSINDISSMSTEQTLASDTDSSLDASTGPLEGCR

NC(=O)c1ccc(N(C(N)=O)c2c(F)cccc2F)nc1-c1ccc(F)cc1F
residual activity (PAK2 (human)): 101%
residual activity (CDC42BPB (human)): 96.5%
residual activity (SGK3 (human)): 99.9%
residual activity (PRKG2 (human)): 98.1%
residual activity (PNCK (human)): 108%
residual activity (MAPK14 (human)): 5.23%
residual activity (PAK3 (human)): 98.3%
residual activity (GRK5 (human)): 103%
residual activity (MAPK9 (human)): 93.5%
residual activity (AXL (human)): 101%
residual activity (RPS6KA2 KD1 KD2 (human)): 97.5%
residual activity (DAPK3 (human)): 107%
residual activity (RPS6KA3 KD1 KD2 (human)): 99.8%
residual activity (CDK3 CCNE1 (human)): 94.7%
residual activity (TTK (human)): 98.8%
residual activity (KIT (human)): 97.7%
residual activity (ADRBK2 (human)): 98.1%
residual activity (SIK2 (human)): 95.1%
residual activity (ABL2 (human)): 100%
residual activity (GSK3B (human)): 101%
residual activity (FER (human)): 95.6%
residual activity (CSNK1G1 (human)): 102%
residual activity (MAPKAPK3 (human)): 99.1%
residual activity (FGR (human)): 94.7%
residual activity (PBK (human)): 110%
residual activity (LTK (human)): 95%
residual activity (PRKCB2 (human)): 94.6%
residual activity (CAMK2A (human)): 90.9%
residual activity (PDGFRA (human)): 102%
residual activity (SRC (human)): 109%
residual activity (PHKG1 (human)): 92%
residual activity (SRPK3 (human)): 105%
residual activity (CAMK2G (human)): 105%
residual activity (TXK (human)): 104%
residual activity (TGFBR1 (human)): 96.7%
residual activity (ITK (human)): 105%
residual activity (PRKCZ (human)): 89.9%
residual activity (DDR2 (human)): 100%
residual activity (IRAK1 (human)): 94.2%
residual activity (ERBB4 (human)): 98.1%
residual activity (NLK (human)): 15.8%
residual activity [1]: 98.8%

Oc1ccc(-c2nc(-c3ccc(F)cc3)c(-c3ccncc3)[nH]2)cc1
residual activity (PAK2 (human)): 94.1%
residual activity (CDC42BPB (human)): 103%
residual activity (SGK3 (human)): 98.4%
residual activity (PRKG2 (human)): 94.2%
residual activity (PNCK (human)): 99.7%
residual activity (MAPK14 (human)): 7.42%
residual activity (PAK3 (human)): 98.7%
residual activity (GRK5 (human)): 104%
residual activity (MAPK9 (human)): 93.4%
residual activity (AXL (human)): 99.8%
residual activity (RPS6KA2 KD1 KD2 (human)): 101%
residual activity (DAPK3 (human)): 100%
residual activity (RPS6KA3 KD1 KD2 (human)): 96.1%
residual activity (CDK3 CCNE1 (human)): 96.7%
residual activity (TTK (human)): 103%
residual activity (KIT (human)): 97.7%
residual activity (ADRBK2 (human)): 99.3%
residual activity (SIK2 (human)): 83.4%
residual activity (ABL2 (human)): 91.1%
residual activity (GSK3B (human)): 76.6%
residual activity (FER (human)): 94.5%
residual activity (CSNK1G1 (human)): 97.3%
residual activity (MAPKAPK3 (human)): 101%
residual activity (FGR (human)): 93%
residual activity (PBK (human)): 100%
residual activity (LTK (human)): 97.1%
residual activity (PRKCB2 (human)): 75%
residual activity (CAMK2A (human)): 104%
residual activity (PDGFRA (human)): 98.8%
residual activity (SRC (human)): 85.9%
residual activity (PHKG1 (human)): 94.2%
residual activity (SRPK3 (human)): 95.9%
residual activity (CAMK2G (human)): 101%
residual activity (TXK (human)): 78.5%
residual activity (TGFBR1 (human)): 108%
residual activity (ITK (human)): 90.9%
residual activity (PRKCZ (human)): 109%
residual activity (DDR2 (human)): 86.3%
residual activity (IRAK1 (human)): 123%
residual activity (ERBB4 (human)): 83.1%
residual activity (NLK (human)): 46.1%
residual activity [1]: 102%
